# Data as given in patent US20190059381A1, “METHOD FOR CONTROLLING PESTS OF SOYBEAN, CORN, AND COTTON PLANTS” (BASF SE, priority 2016, published 2019).
# Like-named read-outs stand apart in the source and are kept apart here.
# System: Brown Stink Bug (Euschistus heros)
# Test: Action on Brown Stink Bug (Euschistus heros) on sprayed soybean seedlings
# Type: in vivo
# Settings: for mortality at 1 ppm: 1 ppm a.i.; for mortality at 10 ppm: 10 ppm a.i.
# Protocol: Action on Brown Stink Bug (Euschistus heros)
# The active compound is dissolved at the desired concentration in a mixture of 1:1 (vol:vol) distilled water: acetone.
# Soybean seedlings of Intacta® and BMX-Potencia with one pair of true leaves were sprayed with 2 ml solution using an airbrush. After dry, the plants in small pots were placed inside a transparent plastic cage and infested with 10 adults adult stage individuals. Treated cups were kept at about 25° C. Percent mortality was recorded after 3 and 7 days after application.
# [1] = 72 h, BMX-POTENCIA soybean seedlings, 3 days after application, adults, read-out: mortality 3 DAA
# [2] = 72 h, INTACTA soybean seedlings, 3 days after application, adults, read-out: mortality 3 DAA
# [3] = 168 h, BMX-POTENCIA soybean seedlings, 7 days after application, adults, read-out: mortality 7 DAA
# [4] = 168 h, BMX-POTENCIA soybean seedlings, 7 days after application, corrected according to Abbott, read-out: mortality (Abbott %) 7 DAA
# [5] = 168 h, INTACTA soybean seedlings, 7 days after application, adults, read-out: mortality 7 DAA
# [6] = 168 h, INTACTA soybean seedlings, 7 days after application, corrected according to Abbott, read-out: mortality (Abbott %) 7 DAA
compound,measurement,setting,value
CCN1OC[C@@H](NC(=O)c2ccc(C3=NOC(c4cc(Cl)cc(Cl)c4)(C(F)(F)F)C3)cc2C)C1=O (stereo partly drawn) [Compound I.1],mortality at 1 ppm,[1],7.5%
same,mortality at 10 ppm,[1],17.5%
same,mortality at 1 ppm,[2],12.5%
same,mortality at 10 ppm,[2],17.5%
same,mortality at 1 ppm,[3],50%
same,mortality at 1 ppm,[4],42.9%
same,mortality at 10 ppm,[3],82.5%
same,mortality at 10 ppm,[4],80%
same,mortality at 1 ppm,[5],57.5%
same,mortality at 1 ppm,[6],50%
same,mortality at 10 ppm,[5],85%
same,mortality at 10 ppm,[6],82.4%
